{"source": "patent US20220280661A1", "about": "“GLUCOCORTICOID RECEPTOR RADIOLIGANDS AND METHODS FOR THEIR PREPARATION AND USE” (The Regents of the University of California, priority 2019, published 2022)", "target": "T1, GR (Homo sapiens, UniProt P04150)", "T1 construct": "evaluated using ^3H-ligand displacement assays on cells; endogenous in cells; host or cells: DU145", "T1 sequence (P04150 1-777)": "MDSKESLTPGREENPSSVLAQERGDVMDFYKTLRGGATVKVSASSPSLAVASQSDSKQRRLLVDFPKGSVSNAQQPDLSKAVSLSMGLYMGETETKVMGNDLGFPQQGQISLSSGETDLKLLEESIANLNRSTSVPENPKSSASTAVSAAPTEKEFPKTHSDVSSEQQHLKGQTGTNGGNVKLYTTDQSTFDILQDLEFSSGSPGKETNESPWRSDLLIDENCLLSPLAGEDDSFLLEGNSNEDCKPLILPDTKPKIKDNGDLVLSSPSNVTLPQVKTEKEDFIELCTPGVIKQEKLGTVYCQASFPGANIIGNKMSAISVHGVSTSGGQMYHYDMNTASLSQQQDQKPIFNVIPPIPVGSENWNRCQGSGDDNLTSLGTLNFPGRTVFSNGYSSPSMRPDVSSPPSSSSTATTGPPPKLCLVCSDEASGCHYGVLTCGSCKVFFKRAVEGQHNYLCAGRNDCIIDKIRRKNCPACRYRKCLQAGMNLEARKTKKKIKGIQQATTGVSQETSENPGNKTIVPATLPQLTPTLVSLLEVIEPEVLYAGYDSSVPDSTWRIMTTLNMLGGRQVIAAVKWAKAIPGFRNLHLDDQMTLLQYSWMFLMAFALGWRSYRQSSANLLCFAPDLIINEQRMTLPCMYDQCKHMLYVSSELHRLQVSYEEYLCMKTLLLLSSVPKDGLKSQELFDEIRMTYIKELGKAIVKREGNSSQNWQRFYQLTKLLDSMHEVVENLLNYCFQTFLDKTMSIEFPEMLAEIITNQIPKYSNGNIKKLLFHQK", "experiment": "3H-ligand displacement assay on cells, GR (DU145)", "format": "binding", "conditions": "for selectivity for GR over other subfamily 3 nuclear hormone receptors: relative affinity", "method": "The affinity of YJH08 for GR and the other type 1 subfamily 3 nuclear hormone receptors was evaluated using ^3H-ligand displacement assays on cells. The Kd for subfamily 3 class C nuclear hormone receptors was determined on cells by displacing ^3H-steroidal agonists for the respective receptor. […] The Kd was determined using the following cell lines: DU145 (GR), LNCaP-AR (AR), MCF7 (PR, ER), and HEK293 transiently overexpressing full length human MR.\nThe cold ligands and ^3H-steroids were co-incubated on cells in PBS at room temperature for one hour. Following incubation, the cells were washed twice with ice cold PBS and the unbound activity was retained for analysis. The cells were lysed with 1 mL of 1M NaOH and collected. Bound and unbound fractions were counted in a liquid scintillation counter and expressed as a percentage of the total activity added per equal relative number of cells. […] These experiments were performed at three concentrations of experimental ligand (1 pM, 100 nM and 10 μM), and a linear extrapolation was used to subtract the non-specific component of binding from each treatment condition. The specific binding component was plotted against the log of the competing ligand and curve fit using a non-linear regression algorithm with PRISM software.", "note": "Read-outs that look alike come from different tables or passages of the source."}
{"smiles": "COc1cccc2c1-c1ccc3c(c1C(Cc1ccc(F)cc1)O2)C(C)=CC(C)(C)N3", "note": "(racemic) [YJH08, 5-(4-fluorobenzyl)-10-methoxy-2,2,4-trimethyl-2,5-dihydro-1H-chromeno[3,4-f]quinoline]", "values": [{"measurement": "fold more potent than the agonist dexamethasone (GR)", "value": "about 10 fold"}, {"measurement": "Kd", "setting": "DU145 cells, 3H-dexamethasone, Reference = dexamethasone, read-out: Kd GR", "value": 0.401, "unit": "nM"}, {"measurement": "Kd", "setting": "read-out: Kd for GR", "value": "~0.4", "unit": "nM"}, {"measurement": "selectivity for GR over other subfamily 3 nuclear hormone receptors", "value": "at least 100 fold"}]}
{"smiles": "COc1cccc2c1-c1ccc3c(c1C(Cc1ccc([18F])cc1)O2)C(C)=CC(C)(C)N3", "note": "(racemic) [[18F]-YJH08, [^18F]-5-(4-fluorobenzyl)-10-methoxy-2,2,4-trimethyl-2,5-dihydro-1H-chromeno[3,4-f]quinoline]", "values": [{"measurement": "affinity for GR", "setting": "in words", "value": "sub nM"}, {"measurement": "selectivity for GR over other subfamily 3 nuclear hormone receptors", "value": "at least 100 fold"}]}
